Source: BindingDB's records for doi:10.7270/Q2N58JS6 (University of Pittsburgh, 2007)

target: Serine/threonine-protein kinase PLK1 (Homo sapiens, UniProt P53350); test: H2O2 production by redox-active compounds – biochemical, 1 mM DTT, artefact control for Plk1 PBD inhibitor project, dose response (AID 936)
Sequence (P53350 whole entry): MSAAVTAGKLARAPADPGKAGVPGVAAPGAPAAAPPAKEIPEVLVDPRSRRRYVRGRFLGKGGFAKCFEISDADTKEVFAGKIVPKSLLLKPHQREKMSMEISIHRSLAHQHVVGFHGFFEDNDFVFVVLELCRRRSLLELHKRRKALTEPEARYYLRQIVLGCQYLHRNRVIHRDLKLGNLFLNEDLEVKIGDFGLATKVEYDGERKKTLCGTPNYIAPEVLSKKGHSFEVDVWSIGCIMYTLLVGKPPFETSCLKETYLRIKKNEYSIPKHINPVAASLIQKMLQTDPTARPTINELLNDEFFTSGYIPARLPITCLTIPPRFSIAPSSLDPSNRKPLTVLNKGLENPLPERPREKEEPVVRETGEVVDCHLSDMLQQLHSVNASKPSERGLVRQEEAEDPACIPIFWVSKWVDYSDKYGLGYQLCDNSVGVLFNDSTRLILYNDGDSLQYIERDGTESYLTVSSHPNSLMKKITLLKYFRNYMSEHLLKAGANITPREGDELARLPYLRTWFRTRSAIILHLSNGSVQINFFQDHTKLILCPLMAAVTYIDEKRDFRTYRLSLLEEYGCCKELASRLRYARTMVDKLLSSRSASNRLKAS

Structure (SMILES)	EC50 [µM]
COc1ccc(C(C)C)cc1S(=O)(=O)Nc1ccc(Cl)cn1 [MLS000071127]	> 50
O=C1C(=C2C(=O)c3ccccc3C2=O)Nc2ccccc21 [MLS000071738]	> 50
CCC(=O)Nc1ccc(-c2nnc(SCC(=O)Nc3nccs3)n2C)cc1 [MLS000076456]	> 50
CC(C)OCCCNC(=O)c1ccc(NC(=O)C2CCCO2)cc1 (configuration not stated) [MLS000086701]	> 50
CCOCCCNC(=O)CCCOc1ccccc1 [MLS000088375]	> 50
CC(C)=CC(=O)NCCc1ccccc1 [MLS000089152]	> 50
O=C(COc1ccccc1)Nc1ccc(S(=O)(=O)N2CCOCC2)cc1 [MLS000108227]	> 50
CCC(C)c1ccc(NC(=O)C2CC2)cc1 (configuration not stated) [MLS000110184]	> 50
O=C(Nc1nc2ccccc2s1)c1cc2c(s1)-c1ccccc1OC2 [MLS000522634]	> 50
Cn1cc(SCC(=O)Nc2ccc3c(c2)OCCO3)c2ccccc21 [MLS000529783]	> 50

The remaining lines, values ahead:

EC50 [µM]	Structure (SMILES)
> 50	CCC(=O)Nc1ccccc1C(=O)NC1CCCCC1 [MLS000538265]
> 50	Cc1[nH]n2c(=O)cc(-c3ccc([N+](=O)[O-])cc3)nc2c1-c1ccccc1 [MLS000547439]
> 50	CCOc1ccccc1N1CCN(C2=C(NS(=O)(=O)c3cccs3)C(=O)c3ccccc3C2=O)CC1 [MLS000551587]
> 50	O=C(NCCc1ccccc1)/C(=C\c1ccc([N+](=O)[O-])cc1)NC(=O)c1ccccc1 [MLS000575866]
> 50	O=C(NC1(O)C(=O)c2ccccc2C1=O)c1ccccc1 [N-(2-hydroxy-1,3-dioxo-2-indenyl)benzamide]
> 50	CC(=O)N(N=C1Sc2ccccc2C1=O)c1ccccc1C [N-(2-methylphenyl)-N-[(3-oxo-1-benzothiophen-2-ylidene)amino]acetamide]
> 50	CC(=O)N(N=C1Sc2ccccc2C1=O)c1cccc(C)c1 [N-(3-methylphenyl)-N-[(3-oxidanylidene-1-benzothiophen-2-ylidene)amino]ethanamide]
> 50	CC(C)N(Cc1cc2ccccc2[nH]c1=O)C(=O)c1cccnc1 [N-[(2-oxo-1H-quinolin-3-yl)methyl]-N-propan-2-ylpyridine-3-carboxamide]
> 50	CC(=O)N(N=C1Sc2ccccc2C1=O)c1ccccc1 [N-[(Z)-(3-ketobenzothiophen-2-ylidene)amino]-N-phenyl-acetamide]
> 50	Cc1cccc2[nH]c3c(N4CCN(C(=O)c5ccco5)CC4)ncnc3c12 [SMR000148910]
> 50	NC(=O)C1CCN(C2=C(Cl)C(=O)c3ccccc3C2=O)CC1 [SMR000180199]
> 50	COC(=O)c1ccccc1NC1=CC(=NS(=O)(=O)c2cccs2)c2ccccc2C1=O [methyl 2-[[(4E)-1-oxidanylidene-4-thiophen-2-ylsulfonylimino-naphthalen-2-yl]amino]benzoate]
